Reference: patent US8993527B2, “Methods, compositions, and formulations for preventing or reducing adverse effects in a patient” (Pericor Therapeutics, Inc., priority 2005, dated 2015)
Counter-ions that a name gives are not always drawn.

Columns and labels:
demand-induced ischemia = test: Canine model of stable angina (repeated pacing with LAD stenosis); assay type: in vivo, dog
Procedure: Anesthetized male dogs were instrumented to measure regional myocardial wall thickening during right atrial pacing in the presence of a stenosis of the left anterior descending artery (Young & Mullane Am. J. Physiol. in press (1991)). In Table XIA, the effects on wall thickening and arterial pressure of six repeated episodes of pacing in animals treated with a continuous IV infusion of 50 μg/kg/min of the test compound administered post-pace #1 are compared with saline-treated control animals.

[1] = biological target: T1, NBTI-specific adenosine transport site (UniProt O54698); test: [3H]-NBTI binding assay; settings: read-out: ED50 (50% displacement of bound [3H]-NBTI); 0.5 mg neuronal membrane protein, 0.5 nM [3H]-NBTI, 30 minutes
T1 sequence (O54698 1-457): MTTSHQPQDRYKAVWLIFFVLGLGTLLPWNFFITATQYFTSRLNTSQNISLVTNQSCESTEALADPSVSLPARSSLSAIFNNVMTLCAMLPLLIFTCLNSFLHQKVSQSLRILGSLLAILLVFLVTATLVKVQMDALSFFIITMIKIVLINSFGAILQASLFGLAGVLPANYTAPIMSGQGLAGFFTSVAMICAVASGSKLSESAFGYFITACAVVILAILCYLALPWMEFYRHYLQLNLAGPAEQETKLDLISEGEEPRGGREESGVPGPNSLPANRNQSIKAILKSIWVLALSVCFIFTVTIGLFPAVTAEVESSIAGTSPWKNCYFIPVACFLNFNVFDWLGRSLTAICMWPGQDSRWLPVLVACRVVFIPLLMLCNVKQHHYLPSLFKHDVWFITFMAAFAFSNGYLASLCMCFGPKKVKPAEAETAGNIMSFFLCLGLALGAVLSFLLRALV
Procedure: Increasing concentrations of the test compounds were incubated for 30 minutes with 0.5 mg neuronal membrane protein together with 0.5 nM [^3 H]-NBTI in a Tris buffer (pH 7.4) at room temperature. The assays were quenched and membranes collected by rapid filtration. Filters were then solubilized and radioactivity determined by scintillation counting.

[2] = tested on: platelet aggregation in human whole blood; test: Inhibition of platelet aggregation in human whole blood; assay type: cell-based; settings: Homo sapiens, Platelet, 10 min, 10 minutes at 37° C., 10 µM adenosine added, ADP (6-25 μM)
Procedure: Whole blood was drawn from healthy donors and collected in 0.1 vol. of sodium citrate to prevent coagulation. Platelet aggregation was measured by the impedance technique using a Whole Blood Aggregometer. The test compounds were incubated in whole blood for 10 minutes at 37° C. and 10 µM adenosine was added 5 minutes before eliciting aggregation. Aggregation was induced by addition of ADP (6-25 μM) at the minimum concentration inducing full aggregation in untreated controls.

[3] = tested on: longitudinal muscle from the guinea pig ileum; test: Inhibition of stimulated contraction in isolated ileum; settings: electrically stimulated guinea pig ileum muscle
Excerpt: These are detailed in Table II.

[4] = tested on: coronary endothelial cells; test: Inhibition of adenosine utilization in cell culture; assay type: cell-based; settings: Endothelial cell, 1 μM [3H] adenosine, 15 minutes
Procedure: In this assay, endothelial cells were incubated with 5 μM or 50 μM of the test compound together with 1 μM [^3H] adenosine for 15 minutes. Inhibition of adenosine utilization was determined by measuring the concentration of extracellular adenosine by scintillation counting following separation by thin layer chromatography (TLC).

[5] = Oral bioavailability and half-life in fasted adult beagles; assay type: in vivo, dog; settings: beagle, dog, in vivo
Procedure: Heparinized blood and urine were collected at selected intervals over 24 hours. Each sample was chilled, centrifuged at 4° C. and frozen prior to HPLC analysis.

[6] = biological target: T2, calf intestinal musosa adenosine deaminase (Bos taurus, UniProt P56658); test: Adenosine deaminase activity; assay type: biochemical; settings: 80 μM adenosine, 10 minutes at 37° C.
T2 construct: 0.002 units of calf intestinal musosa adenosine deaminase; from tissue; host or cells: calf intestinal mucosa
Procedure: Different concentrations of the test compounds were incubated in the assay mixture for 10 minutes at 37° C. The reaction was monitored continuously for oxidation of NADH from the change in absorbance at 340 nm.

[7] = tested on: granulocytes and endothelial cells; test: Granulocyte/endothelial cell interaction, intravital microscopy of mesentery microvessels; assay type: in vivo, rat; settings: superfusion with 20 μM, approximately 2 μM in the vessel
Procedure: The parameter measured was the fracture stress between the two cell types.
These studies were performed by intravital microscopy filming of granulocytes in rat mesentary microvessels. The rolling velocity of granulocytes compared to the streaming velocity of red cells was calculated before and after the administration of adenosine.

brain ischemia = test: Gerbil stroke model: hippocampal pyramidal cell survival; assay type: in vivo; settings: pretreatment with 500 mg/kg (FIG. 21)
Procedure: Ischemia was then induced by bilateral occlusion of both common carotid arteries for 5 minutes. Seven days following the ischemic insult, brains were removed and processed for histology.

[8] = tested on: Mouse bone marrow-derived mast cells; test: Ribavirin: mast cell β-hexosaminidase release
AMP deaminase = test: Inhibition of AMP deaminase (14C-AMP to 14C-IMP); assay type: biochemical, human; settings: 200 μM of each ribotide
Procedure: The phosphorylated forms are referred to as AICA ribotide and ribavirin monophosphate, respectively. Using 200 μM of each ribotide, AMP deaminase was inhibited 38% and 54%, respectively.

ischemic rat hearts = test: Rat heart ischemia model: tissue adenosine levels; assay type: in vivo
Procedure: Male rats were injected intraperitonealy with either the AICA riboside analog, AICA riboside or saline, as a control. After 60 minutes, the hearts were excised and incubated at 37° C. for a further 60 minutes. Tissue extracts were prepared and analyzed for adenosine by high performance liquid chromatography (HPLC).

T2 sequence (P56658 whole entry): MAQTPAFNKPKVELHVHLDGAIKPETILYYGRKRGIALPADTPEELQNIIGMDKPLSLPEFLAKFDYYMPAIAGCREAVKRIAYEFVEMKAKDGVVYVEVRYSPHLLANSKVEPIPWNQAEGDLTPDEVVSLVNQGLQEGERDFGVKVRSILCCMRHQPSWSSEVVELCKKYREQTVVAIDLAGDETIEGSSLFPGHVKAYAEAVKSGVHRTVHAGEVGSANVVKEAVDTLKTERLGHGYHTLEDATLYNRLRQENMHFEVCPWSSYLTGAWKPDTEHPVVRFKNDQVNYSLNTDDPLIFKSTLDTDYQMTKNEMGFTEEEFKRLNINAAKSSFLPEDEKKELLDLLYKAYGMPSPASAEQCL

SMILES: NC[C@H]1O[C@@H](n2cnc(C(=O)NCc3ccc(Cl)cc3)c2N)[C@H](O)[C@@H]1O [Compound No. 53 (1-468), 5-Amino-1-(5-amino-5-deoxy-β-D-ribofuranosyl)imidazole-4-N-[(4-chlorophenyl)methyl]carboxamide Hydrochloride]
- Heart Rate (demand-induced ischemia; Baseline): 143 ± 6 beats/min
- Mean Arterial Pressure (demand-induced ischemia; Baseline): 86 ± 5 mm Hg
- % of NON-ISCHEMIC WALL THICKENING (demand-induced ischemia; Pace # 1 (before infusion), 50 μg/kg/min IV post-pace #1): 49.5 ± 6.5%
- % of NON-ISCHEMIC WALL THICKENING (demand-induced ischemia; Pace # 2): 46.7 ± 7.0%
- % of NON-ISCHEMIC WALL THICKENING (demand-induced ischemia; Pace # 3): 54.2 ± 9.4 %
- % of NON-ISCHEMIC WALL THICKENING (demand-induced ischemia; Pace # 4): 48.1 ± 7.6 %
- % of NON-ISCHEMIC WALL THICKENING (demand-induced ischemia; Pace # 5): 47.5 ± 8.2 %
- % of NON-ISCHEMIC WALL THICKENING (demand-induced ischemia; Pace # 6): 42.1 ± 7.0 %
- Heart Rate, Change from Baseline (demand-induced ischemia; Post Pace Rest Period 1): 1 ± 2 beats/min
- Mean Arterial Pressure, Change from Baseline (demand-induced ischemia; Post Pace Rest Period 1): −1 ± 3 mm Hg
- Heart Rate, Change from Baseline (demand-induced ischemia; Post Pace Rest Period 2): −2 ± 4 beats/min
- Mean Arterial Pressure, Change from Baseline (demand-induced ischemia; Post Pace Rest Period 2): −2 ± 3 mm Hg
- Heart Rate, Change from Baseline (demand-induced ischemia; Post Pace Rest Period 3): −1 ± 3 beats/min
- Mean Arterial Pressure, Change from Baseline (demand-induced ischemia; Post Pace Rest Period 3): −8 ± 3 mm Hg
- Heart Rate, Change from Baseline (demand-induced ischemia; Post Pace Rest Period 4): 2 ± 4 beats/min
- Mean Arterial Pressure, Change from Baseline (demand-induced ischemia; Post Pace Rest Period 4): −7 ± 3 mm Hg
- Heart Rate, Change from Baseline (demand-induced ischemia; Post Pace Rest Period 5): 1 ± 4 beats/min
- Mean Arterial Pressure, Change from Baseline (demand-induced ischemia; Post Pace Rest Period 5): −8 ± 3 mm Hg
- Heart Rate, Change from Baseline (demand-induced ischemia; Post Pace Rest Period 6): 2 ± 4 beats/min
- Mean Arterial Pressure, Change from Baseline (demand-induced ischemia; Post Pace Rest Period 6): −7 ± 3 mm Hg
- EC50 [1]: ~100 µM
- IC50 [2]: 150 µM
- IC50 ([3]; Cavia porcellus): 70 µM
- inhibition at 5 µM ([4]; 5 μM): 34 ± 4%
- inhibition at 50 µM ([4]; 50 μM): 58 ± 2%
- half-life [5]: 5.61 h
- bioavailability ([5]; po, 10 mg/kg IV bolus and 20 mg/kg via stomach tube, read-out: Absolute Oral Bioavailability %): 32 ± 11%

SMILES: CCCCO[C@@H]1[C@H](O)[C@@H](CO)O[C@H]1n1cnc(C(N)=O)c1N [32 (1-262), 5-amino-1-(2-O-n-butyl-β-D-ribofuranosyl)imidazole-4-carboxamide]
- IC50 [6]: 175 µM

SMILES: Nc1ncnc2c1ncn2[C@@H]1O[C@H](CO)[C@@H](O)[C@H]1O [Adenosine, 9-β-D-ribofuranosyladenine]
- rolling velocity of granulocytes in microvessels [7]: twofold increase

SMILES: Nc1c(C(=O)NC2CCCC2)ncn1C1OC(CO)C(O)C1O [Compound No. 10 (1-186), 5-Amino-1-beta-D-ribofuranosylimidazole-4-N-(cyclopentyl)carboxamide]
- melting point: 158 to 160 °C
- EC50 [1]: 350 µM
- effect in a gerbil model of brain ischemia (brain ischemia): demonstrated protective effects

SMILES: NC(=O)c1ncn([C@@H]2O[C@H](CO)[C@@H](O)[C@H]2O)n1 [ribavirin, 1-β-D-ribofuranosyl-1H-1,2,4-triazole-3-carboxamide]
- mediator release ([8]; 1 μM for six days): inhibits mediator release significantly
- β-hexosaminidase release ([8]; 10 μM added at the time of mast cell stimulation): does not affect
- β-hexosaminidase release ([8]; three to seven days in 10 μM, washed, A23187 challenge): marked attenuation

SMILES: NC(=O)c1ncn([C@@H]2O[C@H](COP(=O)(O)O)[C@@H](O)[C@H]2O)c1N [AICA ribotide]
- AMP deaminase inhibited (AMP deaminase): 38%

SMILES: Nc1c(C(=O)NCc2ccccc2)ncn1[C@@H]1O[C@H](CO)[C@@H](O)[C@H]1O [Compound No. 11 (1-226), 5-Amino-1-beta-D-ribofuranosylimidazole-4-N-(benzyl)carboxamide]
- IC50 [3]: 200 µM
- Tissue Adenosine Levels (% Increase vs. Saline) (ischemic rat hearts; Expt 1): 53%
- Tissue Adenosine Levels (% Increase vs. Saline) (ischemic rat hearts; Expt 2): 45%
- effect in a gerbil model of brain ischemia (brain ischemia): demonstrated protective effects

SMILES: NC(=O)c1ncn([C@@H]2O[C@H](COP(=O)(O)O)[C@@H](O)[C@H]2O)n1 [ribavirin monophosphate]
- AMP deaminase inhibited (AMP deaminase): 54%
